# Experimental data as given in patent US20260250325A1, “Antiviral Polypeptide Membrane Fusion Inhibitor, and Preparation Method and Application Thereof” (priority 2025, published 2026).
# Where a SMILES comes first, the peptide text is derived from it. The star is where a group is joined. Succinyl(4-O-cholesteryl) = CC(C)CCC[C@@H](C)[C@H]1CC[C@H]2[C@@H]3CC=C4C[C@@H](OC(=O)CCC(=O)*)CC[C@]4(C)[C@H]3CC[C@]12C; X1 = CC(C)CCCC(C)C1CCC2C3CC=C4CC(OC(=O)CCC(=O)*)CCC4(C)C3CCC12C
# Test system: hPIV3 C243 virus strain
# Type: cell-based, hPIV
# Settings: LLC-MK2 cells, hPIV3 C243, plaque reduction; read-out: EC50 against hPIV3 virus
# Method: Rhesus monkey kidney cells (LLC-MK2) were sourced from the ATCC, with a catalog number CCL-7.1. The cells were cultured in a DMEM culture solution in which 10% fetal bovine serum, 1% non-essential amino acids, 1% sodium pyruvate, 1% L-glutamine, 100 U/ml penicillin, and 100 μg/ml streptomycin were added.
# An HPIV-3 plaque experiment culture medium consisted of a DMEM culture solution added with 2% fetal bovine serum, 1% non-essential amino acids, 1% sodium pyruvate, 1% L-glutamine, 100 U/ml penicillin, and 100 μg/ml streptomycin.
# The hPIV Type 3 (hPIV3 C243) was sourced from the ATCC, with a catalog number VR-93.
# This study used the plaque reduction experiment to detect the in-vitro activity of the test sample against the hPIV3 C243 virus strain, and Human Anti-HPIV3 Monoclonal Antibody, clone PIA174 was an experimental system control. The test sample and a system experimental antibody were tested at 8 concentrations in duplicated wells.
# The LLC-MK2 cells were digested with trypsin and then diluted to a concentration of 400,000 cells per milliliter by using a cell culture solution containing 2% serum. The diluted cells were added to a 96-well cell test board, with 100 μL per well, corresponding to 40,000 cells per well. The cells were cultured overnight in a 37° C. incubator with 5% CO2.
# On the next day, the sample diluted at a fold ratio and an equal volume of virus (approximately 200 PFU per well) were well mixed and incubated at 37° C. in 5% CO2 for 1 hour. Then, the culture solution in the 96-well cell test board was discarded, the sample virus mixed solution (100 μL) was added to the 96-well cell culture plate, and incubated at 37° C. in 5% CO2 for 2 hours. After 2 h, the sample virus mixed solution was discarded, 200 μL of an experiment culture medium containing the test sample with a corresponding concentration was added, and the culture solution contained 0.8% CMC. A final concentration of DMSO in the culture solution was 0.5%. A control antibody was directly added to the experiment culture solution containing 0.8% CMC. A cell control (cells, without compound treatment or viral infection) and a viral control (cell infection virus, without compound treatment) were set. The cells were cultured for 1 day in the 37° C. incubator with 5% CO2.
# The cells were fixed with 4% paraformaldehyde, and then permeabilization was performed with 0.5% Triton X-100. After the plate was washed with DPBS, a hPIV specific antibody (1:2000 dilution) was added and incubated at 37° C. for 1.5 h. Then, a secondary antibody (1:500 dilution) was added and incubated at 37° C. for 1 hour. The secondary antibody was discarded, a TrueBlue solution was added, dyeing was performed for approximately 10 minutes; and the plate was washed with running water and then air-dried, and the number of spots in each well was counted by using a microplate imaging counter.
# Raw data was used for calculating the antiviral activity of the samples, and a calculation formula was shown as follows.
# % inhibition rate=100−(sample value-cell control average value)/(virus control average value-cell control average value)×100
# Non-linear fitting analysis was performed on the inhibition rate of the sample by using GraphPad Prism (version 10), so as to calculate an EC50 value for the sample. A fitting formula was log (inhibitor) vs. response-Variable slope (four parameters).
row,SMILES,EC50 [µM]
1,CC[C@H](C)[C@H](NC(=O)[C@H](CCCCN)NC(=O)[C@H](CCCCN)NC(=O)[C@H](CC(C)C)NC(=O)[C@H](CO)NC(=O)[C@H](CCC(=O)O)NC(=O)[C@H](CCC(=O)O)NC(=O)[C@@H](NC(=O)[C@H](CCCCN)NC(=O)[C@H](CCCCN)NC(=O)[C@H](CC(N)=O)NC(=O)[C@@H](NC(=O)[C@H](CCC(=O)O)NC(=O)[C@H](CCC(=O)O)NC(=O)[C@@H](NC(=O)[C@H](CCCCN)NC(=O)[C@H](CCCCN)NC(=O)[C@H](CCCCN)NC(=O)[C@H](CC(=O)O)NC(=O)[C@H](Cc1ccccc1)NC(=O)[C@H](CCC(=O)O)NC(=O)[C@H](CC(=O)O)NC(C)=O)[C@@H](C)CC)C(C)C)[C@@H](C)CC)C(=O)N[C@@H](CCC(=O)O)C(=O)N[C@@H](CCC(=O)O)C(=O)N[C@@H](CO)C(=O)N[C@@H](CC(=O)O)C(=O)N[C@@H](CCCCN)C(=O)N[C@@H](CCCCN)C(=O)N[C@@H](CC(C)C)C(=O)N[C@@H](CCC(=O)O)C(=O)N[C@@H](CCC(=O)O)C(=O)N[C@H](C(=O)NCC(=O)N[C@@H](CO)C(=O)NCC(=O)N[C@@H](CO)C(=O)NCC(=O)N[C@@H](CCCCNC(=O)CCC(=O)O[C@H]1CC[C@@]2(C)C(=CC[C@H]3[C@@H]4CC[C@H]([C@H](C)CCCC(C)C)[C@@]4(C)CC[C@@H]32)C1)C(N)=O)C(C)C [Compound 15] (Ac-DEFDKKKIEEVNKKIEESLKKIEESDKKLEEVGSGSGK(Succinyl(4-O-cholesteryl))-NH2),0.0207
2,CC[C@H](C)[C@H](NC(=O)[C@H](CCCCN)NC(=O)[C@H](CCCCN)NC(=O)[C@H](CC(C)C)NC(=O)[C@H](CO)NC(=O)[C@H](CCC(=O)O)NC(=O)[C@H](CCC(=O)O)NC(=O)[C@@H](NC(=O)[C@H](CCCCN)NC(=O)[C@H](CCCCN)NC(=O)[C@H](CC(N)=O)NC(=O)[C@@H](NC(=O)[C@H](CCC(=O)O)NC(=O)[C@H](CCC(=O)O)NC(=O)[C@@H](NC(=O)[C@H](CCCCN)NC(=O)[C@H](CCCCN)NC(=O)[C@H](CC(=O)O)NC(=O)[C@H](Cc1ccccc1)NC(=O)[C@H](CCC(=O)O)NC(=O)[C@H](CC(=O)O)NC(=O)[C@H](CO)NC(C)=O)[C@@H](C)CC)C(C)C)[C@@H](C)CC)C(=O)N[C@@H](CCC(=O)O)C(=O)N[C@@H](CCC(=O)O)C(=O)N[C@@H](CO)C(=O)N[C@@H](CC(=O)O)C(=O)N[C@@H](CCCCN)C(=O)N[C@@H](CCCCN)C(=O)N[C@@H](CC(C)C)C(=O)N[C@@H](CCC(=O)O)C(=O)N[C@@H](C)C(=O)N[C@@H](C)C(=O)N[C@@H](C)C(=O)N[C@@H](CCCCN)C(=O)N[C@@H](CCCCNC(=O)CCC(=O)O[C@H]1CC[C@@]2(C)C(=CC[C@H]3[C@@H]4CC[C@H]([C@H](C)CCCC(C)C)[C@@]4(C)CC[C@@H]32)C1)C(N)=O [Compound 16] (Ac-SDEFDKKIEEVNKKIEESLKKIEESDKKLEAAAKK(Succinyl(4-O-cholesteryl))-NH2),0.059
3,CC[C@H](C)[C@H](NC(=O)[C@H](CCCCN)NC(=O)[C@H](CCCCN)NC(=O)[C@H](CC(C)C)NC(=O)[C@H](CO)NC(=O)[C@H](CCC(=O)O)NC(=O)[C@H](CCC(=O)O)NC(=O)[C@@H](NC(=O)[C@H](CCCCN)NC(=O)[C@H](CCCCN)NC(=O)[C@H](CC(N)=O)NC(=O)[C@@H](NC(=O)[C@H](CCC(=O)O)NC(=O)[C@H](CCC(=O)O)NC(=O)[C@@H](NC(=O)[C@H](CCCCN)NC(=O)[C@H](CCCCN)NC(=O)[C@H](CC(=O)O)NC(=O)[C@H](Cc1ccccc1)NC(=O)[C@H](CCC(=O)O)NC(=O)[C@H](CC(=O)O)NC(C)=O)[C@@H](C)CC)C(C)C)[C@@H](C)CC)C(=O)N[C@@H](CCC(=O)O)C(=O)N[C@@H](CCC(=O)O)C(=O)N[C@@H](CO)C(=O)N[C@@H](CC(=O)O)C(=O)N[C@@H](CCCCN)C(=O)N[C@@H](CCCCN)C(=O)N[C@@H](CC(C)C)C(=O)N[C@@H](CCC(=O)O)C(=O)N[C@@H](CCC(=O)O)C(=O)N[C@H](C(=O)N[C@@H](CCC(=O)O)C(=O)N[C@@H](C)C(=O)N[C@@H](C)C(=O)N[C@@H](C)C(=O)N[C@@H](CCCCN)C(=O)N[C@@H](CCCCNC(=O)CCC(=O)OC1CCC2(C)C(=CCC3C2CCC2(C)C(C(C)CCCC(C)C)CCC32)C1)C(N)=O)C(C)C (some centres unmarked) [Compound 21] (Ac-DEFDKKIEEVNKKIEESLKKIEESDKKLEEVEAAAKK(X1)-NH2),0.0213
4,CC[C@H](C)[C@H](NC(=O)[C@H](CCCCN)NC(=O)[C@H](CCC(=O)O)NC(=O)[C@H](CC(C)C)NC(=O)[C@H](CO)NC(=O)[C@H](CCC(N)=O)NC(=O)[C@H](CC(N)=O)NC(=O)[C@@H](NC(=O)[C@H](CCCCN)NC(=O)[C@H](CCC(=O)O)NC(=O)[C@H](CC(N)=O)NC(=O)[C@@H](NC(=O)[C@H](CCC(N)=O)NC(=O)[C@H](CO)NC(=O)[C@H](C)NC(=O)[C@H](CC(=O)O)NC(=O)[C@H](Cc1ccccc1)NC(=O)[C@@H](NC(=O)[C@H](CC(C)C)NC(=O)[C@H](CCC(=O)O)NC(=O)[C@H](CC(=O)O)NC(=O)[C@H](Cc1ccc(O)cc1)NC(C)=O)C(C)C)C(C)C)[C@@H](C)CC)C(=O)N[C@@H](CCCNC(=N)N)C(=O)N[C@@H](CCCCN)C(=O)N[C@@H](CO)C(=O)N[C@@H](CC(=O)O)C(=O)N[C@@H](CCC(=O)O)C(=O)N[C@@H](CC(C)C)C(=O)N[C@@H](CC(C)C)C(=O)N[C@@H](Cc1c[nH]cn1)C(=O)N[C@@H](CC(N)=O)C(=O)N[C@H](C(=O)NCC(=O)N[C@@H](CO)C(=O)NCC(=O)N[C@@H](CO)C(=O)NCC(=O)N[C@@H](CCCCNC(=O)CCC(=O)O[C@H]1CC[C@@]2(C)C(=CC[C@H]3[C@@H]4CC[C@H]([C@H](C)CCCC(C)C)[C@@]4(C)CC[C@@H]32)C1)C(N)=O)C(C)C [Compound 25] (Ac-YDELVFDASQVNEKINQSLEKIRKSDELLHNVGSGSGK(Succinyl(4-O-cholesteryl))-NH2),0.0294
5,CC[C@H](C)[C@H](NC(=O)[C@H](CCCCN)NC(=O)[C@H](CCC(=O)O)NC(=O)[C@H](CC(C)C)NC(=O)[C@H](CO)NC(=O)[C@H](CCC(N)=O)NC(=O)[C@H](CC(N)=O)NC(=O)[C@@H](NC(=O)[C@H](CCCCN)NC(=O)[C@H](CCC(=O)O)NC(=O)[C@H](CC(N)=O)NC(=O)[C@@H](NC(=O)[C@H](CCC(N)=O)NC(=O)[C@H](CO)NC(=O)[C@H](C)NC(=O)[C@H](CC(=O)O)NC(=O)[C@H](Cc1ccccc1)NC(=O)[C@@H](NC(=O)[C@H](CC(C)C)NC(=O)[C@H](CCC(=O)O)NC(=O)[C@H](CC(=O)O)NC(=O)[C@H](Cc1ccc(O)cc1)NC(C)=O)C(C)C)C(C)C)[C@@H](C)CC)C(=O)N[C@@H](CCCNC(=N)N)C(=O)N[C@@H](CCCCN)C(=O)N[C@@H](CO)C(=O)N[C@@H](CC(=O)O)C(=O)N[C@@H](CCC(=O)O)C(=O)N[C@@H](CC(C)C)C(=O)N[C@@H](CC(C)C)C(=O)N[C@@H](Cc1c[nH]cn1)C(=O)N[C@@H](CC(N)=O)C(=O)N[C@H](C(=O)N[C@@H](CCC(=O)O)C(=O)N[C@@H](C)C(=O)N[C@@H](C)C(=O)N[C@@H](C)C(=O)N[C@@H](CCCCN)C(=O)N[C@@H](CCCCNC(=O)CCC(=O)O[C@H]1CC[C@@]2(C)C(=CC[C@H]3[C@@H]4CC[C@H]([C@H](C)CCCC(C)C)[C@@]4(C)CC[C@@H]32)C1)C(N)=O)C(C)C [Compound 30] (Ac-YDELVFDASQVNEKINQSLEKIRKSDELLHNVEAAAKK(Succinyl(4-O-cholesteryl))-NH2),0.0482
